Data on 71 compounds can be found in the Kinase Knowledgebase extract (Sharma et al. 2016).

This assay deals with PIK3CA (human) (UniProt P42336). The assay can be described thus: Enzyme Assay.

Structures are written as SMILES.

Sequence of PIK3CA (human) (P42336 whole entry, looked up): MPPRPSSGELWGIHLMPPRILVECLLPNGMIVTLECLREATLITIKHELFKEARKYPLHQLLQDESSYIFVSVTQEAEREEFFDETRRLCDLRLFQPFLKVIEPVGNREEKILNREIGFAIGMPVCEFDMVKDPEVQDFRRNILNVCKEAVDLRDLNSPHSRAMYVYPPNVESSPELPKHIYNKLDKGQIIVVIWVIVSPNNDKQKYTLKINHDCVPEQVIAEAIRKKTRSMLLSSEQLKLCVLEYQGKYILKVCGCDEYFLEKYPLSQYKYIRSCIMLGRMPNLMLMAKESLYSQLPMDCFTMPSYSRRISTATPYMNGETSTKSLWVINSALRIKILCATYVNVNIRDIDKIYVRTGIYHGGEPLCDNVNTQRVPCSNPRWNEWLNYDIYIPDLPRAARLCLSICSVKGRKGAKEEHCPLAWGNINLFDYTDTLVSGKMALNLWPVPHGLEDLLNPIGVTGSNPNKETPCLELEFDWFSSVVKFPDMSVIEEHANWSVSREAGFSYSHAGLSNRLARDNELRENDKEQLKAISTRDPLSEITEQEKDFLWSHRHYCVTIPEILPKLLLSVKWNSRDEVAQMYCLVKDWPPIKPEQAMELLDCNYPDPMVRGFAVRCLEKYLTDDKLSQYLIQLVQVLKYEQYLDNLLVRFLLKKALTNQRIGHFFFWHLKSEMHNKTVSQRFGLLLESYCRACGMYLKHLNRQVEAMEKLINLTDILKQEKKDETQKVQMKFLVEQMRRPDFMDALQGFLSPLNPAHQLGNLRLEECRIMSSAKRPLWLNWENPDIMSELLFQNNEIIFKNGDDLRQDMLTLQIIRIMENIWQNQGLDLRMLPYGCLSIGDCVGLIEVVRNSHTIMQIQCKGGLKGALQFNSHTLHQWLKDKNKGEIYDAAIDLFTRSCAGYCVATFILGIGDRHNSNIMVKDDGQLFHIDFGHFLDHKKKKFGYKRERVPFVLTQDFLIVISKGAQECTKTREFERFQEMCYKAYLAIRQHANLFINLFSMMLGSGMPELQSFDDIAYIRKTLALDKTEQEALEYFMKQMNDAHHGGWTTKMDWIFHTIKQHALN

In turn, `COCc1ccc(-c2ccc3ncc4c(c3c2)n(-c2ccc(C(C)(C)C#N)cc2)c(=O)n4C)cn1` returned an IC50 of 0.044 µM.
On to `CNC(=O)Nc1ccc(-c2ccc3ncc4c(c3c2)n(-c2cccc(C(F)(F)F)c2C)c(=O)n4C)cn1`, for which the IC50 came out at 0.001 µM.
For the compound `COC(=O)Nc1cncc(-c2ccc3ncc4c(c3c2)n(-c2ccc(C(C)(C)C#N)cc2)c(=O)n4C)c1`, the IC50 was found to be 0.009 µM.
`COCC(=O)Nc1ccc(-c2ccc3ncc4c(c3c2)n(-c2ccc(C(C)(C)C#N)cc2)c(=O)n4C)cn1` showed an IC50 of 0.015 µM.
`CNC(=O)Nc1ccc(-c2ccc3ncc4c(c3c2)n(-c2cccc(C)c2C)c(=O)n4C)cn1`: the IC50 worked out at 0.003 µM.
As for `COCCOc1cc(-c2ccc3ncc4c(c3c2)n(-c2cccc(C(F)(F)F)c2)c(=O)n4C)cnc1C`, the half-inhibitory concentration (IC50) was 0.04 µM.
For `Cn1c(=O)n(-c2ccc(C(C)(C)C#N)cc2)c2c3cc(-c4ccc(NC=O)nc4)ccc3ncc21` the value was 0.019 µM.
`Cn1c(=O)n(-c2ccc(C(C)(C)C#N)cc2)c2c3cc(-c4cncc(OCC#N)c4)ccc3ncc21` yielded an IC50 of 0.022 µM.
With `CCOC(=O)Nc1ccc(-c2ccc3ncc4c(c3c2)n(-c2cccc(C(F)(F)F)c2)c(=O)n4C)cn1`, the IC50 was found to be 0.103 µM.
For `Cn1c(=O)n(-c2ccc(F)c(Cl)c2)c2c3cc(-c4cncc(OCCF)c4)ccc3ncc21` the value was 0.047 µM.
Compound `Cn1c(=O)n(-c2cccc(C(F)(F)F)c2)c2c3cc(-c4cncc(OCCF)c4)ccc3ncc21` came in with a concentration for half-maximal inhibition (IC50) of 0.115 µM.
As to `CNC(=O)Nc1ccc(-c2ccc3ncc4c(c3c2)n(-c2ccc(F)cc2)c(=O)n4C)cn1`, the IC50 turned out to be 0.008 µM.
For `CNC(=O)Nc1ccc(-c2ccc3ncc4c(c3c2)n(-c2cccc(C(F)(F)F)c2)c(=O)n4C)cn1` the value was 0.002 µM; for `COC(=O)Nc1cncc(-c2ccc3ncc4c(c3c2)n(-c2cccc(C(F)(F)F)c2)c(=O)n4C)c1`, 0.146 µM; for `Cn1c(=O)n(-c2ccc(C(C)(C)C#N)cc2)c2c3cc(-c4ccc(NC(=O)C5CC5)nc4)ccc3ncc21`, 0.006 µM.
For `Cc1ncc(-c2ccc3ncc4c(c3c2)n(-c2ccc(C(C)(C)C#N)cc2)c(=O)n4C)cc1OCCF` the value was 0.005 µM; for `COC(=O)Nc1ccc(-c2ccc3ncc4c(c3c2)n(-c2cccc(F)c2Cl)c(=O)n4C)cn1`, 0.016 µM.
As to `COC(=O)Nc1ccc(-c2ccc3ncc4c(c3c2)n(-c2cccc(C(F)(F)F)c2)c(=O)n4C)cn1`, the IC50 turned out to be 0.006 µM.
Compound `CNC(=O)Nc1ccc(-c2ccc3ncc4c(c3c2)n(-c2ccc(N3CCN(C)CC3)c(C(F)(F)F)c2)c(=O)n4C)cn1` gave an IC50 of 0.003 µM.
Consider `C=CC(=O)Nc1ccc(-c2ccc3ncc4c(c3c2)n(-c2cccc(F)c2C)c(=O)n4C)cn1`, for which the IC50 is 0.052 µM.
Take `COC(=O)Nc1ccc(-c2ccc3ncc4c(c3c2)n(-c2cccc(F)c2C)c(=O)n4C)cn1`: the IC50 came out at 0.04 µM.
The compound `CNC(=O)Nc1ccc(-c2ccc3ncc4c(c3c2)n(-c2ccc(Cl)cc2Cl)c(=O)n4C)cn1` gave an IC50 of 0.087 µM.
As for `C=CC(=O)Nc1ccc(-c2ccc3ncc4c(c3c2)n(-c2ccc(C(C)(C)C#N)cc2)c(=O)n4C)cn1`, the IC50 stood at 0.005 µM.
Compound `COCC(=O)Nc1ccc(-c2ccc3ncc4c(c3c2)n(-c2cccc(C(F)(F)F)c2)c(=O)n4C)cn1` registered an IC50 of 0.032 µM.
On to `Cn1c(=O)n(-c2ccc(C(C)(C)C#N)cc2)c2c3cc(-c4ccc(NC(=O)C(F)(F)F)nc4)ccc3ncc21`, for which the IC50 amounted to 0.033 µM.
Consider `CNC(=O)Nc1ccc(-c2ccc3ncc4c(c3c2)n(-c2ccc(C(C)(C)C#N)cc2)c(=O)n4C)cn1`, for which the IC50 turned out to be 0.021 µM.
`Cn1c(=O)n(-c2ccc(C(C)(C)C#N)cc2)c2c3cc(-c4ccc(NC(=O)NCCO)nc4)ccc3ncc21` registered an IC50 of 0.022 µM.
On to `CNC(=O)Nc1ccc(-c2ccc3ncc4c(c3c2)n(-c2cccc(Cl)c2C)c(=O)n4C)cn1`, for which the IC50 stood at 0.006 µM.
With `CNC(=O)Nc1ccc(-c2ccc3ncc4c(c3c2)n(-c2cccc(Cl)c2F)c(=O)n4C)cn1`, the IC50 was 0.003 µM.
As for `COC(=O)Nc1ccc(-c2ccc3ncc4c(c3c2)n(-c2ccccc2C(F)(F)F)c(=O)n4C)cn1`, the IC50 is 0.012 µM.
Compound `COCC(=O)Nc1cncc(-c2ccc3ncc4c(c3c2)n(-c2ccc(C(C)(C)C#N)cc2)c(=O)n4C)c1` yielded an IC50 of 0.063 µM.
`COCCOc1cc(-c2ccc3ncc4c(c3c2)n(-c2ccc(C(C)(C)C#N)cc2)c(=O)n4C)cnc1C` returned an IC50 of 0.018 µM.
Turning to `COC(=O)Nc1ccc(-c2ccc3ncc4c(c3c2)n(-c2ccccc2C)c(=O)n4C)cn1`, the IC50 stood at 0.048 µM.
`COC(=O)Nc1ccc(-c2ccc3ncc4c(c3c2)n(-c2cccc(C)c2C)c(=O)n4C)cn1`: the IC50 is 0.031 µM.
With `CNC(=O)Nc1ccc(-c2ccc3ncc4c(c3c2)n(-c2ccc(F)cc2C)c(=O)n4C)cn1` the figure was 0.012 µM; with `COC(=O)Nc1ccc(-c2ccc3ncc4c(c3c2)n(-c2cccc(Cl)c2F)c(=O)n4C)cn1`, 0.004 µM; with `Cn1c(=O)n(-c2cccc(C(F)(F)F)c2)c2c3cc(-c4ccc(NC(=O)CC#N)nc4)ccc3ncc21`, 0.018 µM.
For `Cc1c(F)cccc1-n1c(=O)n(C)c2cnc3ccc(-c4cncc(OCC#N)c4)cc3c21` the value was 0.066 µM; for `CNC(=O)Nc1ccc(-c2ccc3ncc4c(c3c2)n(-c2cccnc2OC)c(=O)n4C)cn1`, 0.019 µM; for `Cn1c(=O)n(-c2ccc(C(C)(C)C#N)cc2)c2c3cc(-c4ccc(NC(=O)NC5CCOC5)nc4)ccc3ncc21` (stereo unspecified), 0.044 µM.
Regarding `CNC(=O)Nc1ccc(-c2ccc3ncc4c(c3c2)n(-c2ccccc2C)c(=O)n4C)cn1`, the IC50 amounted to 0.012 µM.
In the case of `C=CC(=O)Nc1ccc(-c2ccc3ncc4c(c3c2)n(-c2cccc(C(F)(F)F)c2)c(=O)n4C)cn1`, the IC50 worked out at 0.045 µM.
The compound `COC(=O)Nc1ccc(-c2ccc3ncc4c(c3c2)n(-c2ccc(F)c(Cl)c2)c(=O)n4C)cn1` showed a 50% inhibitory concentration (IC50) of 0.094 µM.
As for `COC(=O)Nc1ccc(-c2ccc3ncc4c(c3c2)n(-c2cccc(C(F)(F)F)c2C)c(=O)n4C)cn1`, the IC50 worked out at 0.015 µM.
Take `Cn1c(=O)n(-c2ccc(C(C)(C)C#N)cc2)c2c3cc(-c4cncc(OCC(F)(F)F)c4)ccc3ncc21`: the IC50 turned out to be 0.019 µM.
Consider `Cc1ncc(-c2ccc3ncc4c(c3c2)n(-c2ccc(C(C)(C)C#N)cc2)c(=O)n4C)cc1OC(F)F`, for which the IC50 was 0.133 µM.
Regarding `COC(=O)Nc1ccc(-c2ccc3ncc4c(c3c2)n(-c2ccc(F)c(C(F)(F)F)c2)c(=O)n4C)cn1`, the IC50 turned out to be 0.025 µM.
`COC(=O)Nc1ccc(-c2ccc3ncc4c(c3c2)n(-c2cccc(Cl)c2C)c(=O)n4C)cn1`: the IC50 came out at 0.027 µM.
For the compound `CNC(=O)Nc1ccc(-c2ccc3ncc4c(c3c2)n(-c2ccc(F)c(C(F)(F)F)c2)c(=O)n4C)cn1`, the IC50 came out at 0.005 µM.
`CNC(=O)Nc1ccc(-c2ccc3ncc4c(c3c2)n(-c2cccc(F)c2)c(=O)n4C)cn1`: the IC50 was found to be 0.021 µM.
For `C#Cc1ccc(-c2ccc3ncc4c(c3c2)n(-c2ccc(C(C)(C)C#N)cc2)c(=O)n4C)cn1` the value was 0.006 µM; for `CNC(=O)Nc1ccc(-c2ccc3ncc4c(c3c2)n(-c2ccc(Cl)cc2C)c(=O)n4C)cn1`, 0.009 µM.
Turning to `COC(=O)Nc1ccc(-c2ccc3ncc4c(c3c2)n(-c2ccc(Cl)cc2Cl)c(=O)n4C)cn1`, the IC50 stood at 0.085 µM.
The compound `Cn1c(=O)n(-c2ccc(C(C)(C)C#N)cc2)c2c3cc(-c4cncc(OC(F)F)c4)ccc3ncc21` yielded an IC50 of 0.01 µM.
`Cn1c(=O)n(-c2ccc(C(C)(C)C#N)cc2)c2c3cc(-c4cncc(OCCF)c4)ccc3ncc21` had an IC50 of 0.023 µM.
As for `Cc1ncc(-c2ccc3ncc4c(c3c2)n(-c2cccc(F)c2C)c(=O)n4C)cc1OCCF`, the IC50 was determined as 0.021 µM.
Compound `Cn1c(=O)n(-c2ccc(C(C)(C)C#N)cc2)c2c3cc(-c4ccc(NC(=O)CC#N)nc4)ccc3ncc21` came in with an IC50 of 0.024 µM.
In the case of `COCC(=O)Nc1ccc(-c2ccc3ncc4c(c3c2)n(-c2ccc(F)c(C(F)(F)F)c2)c(=O)n4C)cn1`, the IC50 is 0.09 µM.
On to `COC(=O)Nc1cncc(-c2ccc3ncc4c(c3c2)n(-c2cccc(Cl)c2C)c(=O)n4C)c1`, for which the IC50 stood at 0.08 µM.
As for `CNC(=O)Nc1ccc(-c2ccc3ncc4c(c3c2)n(-c2c(C)cccc2C)c(=O)n4C)cn1`, the IC50 was 0.107 µM.
For `C#Cc1cncc(-c2ccc3ncc4c(c3c2)n(-c2ccc(C(C)(C)C#N)cc2)c(=O)n4C)c1` the value was 0.012 µM.
The compound `C#Cc1cncc(-c2ccc3ncc4c(c3c2)n(-c2cccc(C(F)(F)F)c2)c(=O)n4C)c1` returned an IC50 of 0.022 µM.
In the case of `COCCOc1cncc(-c2ccc3ncc4c(c3c2)n(-c2ccc(C(C)(C)C#N)cc2)c(=O)n4C)c1`, the IC50 was found to be 0.076 µM.
Regarding `Cc1ncc(-c2ccc3ncc4c(c3c2)n(-c2cccc(C(F)(F)F)c2)c(=O)n4C)cc1OCCF`, the IC50 was 0.014 µM.
As for `CNC(=O)Nc1ccc(-c2ccc3ncc4c(c3c2)n(-c2ccccc2C(F)(F)F)c(=O)n4C)cn1`, the IC50 was determined as 0.004 µM.
For `CNC(=O)Nc1ccc(-c2ccc3ncc4c(c3c2)n(-c2cccc(F)c2Cl)c(=O)n4C)cn1` the value was 0.005 µM.
Turning to `CNC(=O)Nc1ccc(-c2ccc3ncc4c(c3c2)n(-c2cccc(F)c2C)c(=O)n4C)cn1`, the IC50 came out at 0.007 µM.
As for `COCCOc1cncc(-c2ccc3ncc4c(c3c2)n(-c2ccc(F)c(C(F)(F)F)c2)c(=O)n4C)c1`, the IC50 amounted to 0.107 µM.
In turn, `COC(=O)Nc1ccc(-c2ccc3ncc4c(c3c2)n(-c2cccnc2OC)c(=O)n4C)cn1` showed an IC50 of 0.057 µM.
Consider `C/C=C/C(=O)Nc1ccc(-c2ccc3ncc4c(c3c2)n(-c2ccc(C(C)(C)C#N)cc2)c(=O)n4C)cn1`, for which the IC50 came to 0.014 µM.
For `COC(=O)Nc1ccc(-c2ccc3ncc4c(c3c2)n(-c2ccc(C(F)(F)F)nc2C)c(=O)n4C)cn1` the value was 0.0024 µM.

What is called IC50 is the concentration at which inhibition is half-maximal. A lower IC50 goes with greater potency.
